Reference: the supplement of paper PMC10307832

Legend:
Experiment in all cases: relative viability (nuclei count vs DMSO), 5 days (fraction); higher = more cells survive
LCLC-103H = tested on: LCLC-103H
Procedure, shortened: (§1)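 After 5 days of treatment, lung cancer cells in 1536-well plates were fixed and stained in a single step (final 0.05% Triton X-100, 1% formaldehyde, 1 ug/ml Hoechst) and their nuclei counted on 4× images. Treatment had been applied by pin tool the day after seeding as one drug alone or as a fixed anchor-drug dose with five library-drug doses (not always all listed) in √10 steps. Relative viability is the nuclei count of treated wells divided by that of vehicle wells, and values are medians of duplicate plates.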

UMC-11 = tested on: UMC-11
Procedure, shortened: as §1

NCI-H1648 = tested on: NCI-H1648
Procedure, shortened: as §1

EKVX = tested on: EKVX
Procedure, shortened: as §1

NCI-H1755 = tested on: NCI-H1755
Procedure, shortened: as §1

NCI-H1395 = tested on: NCI-H1395
Procedure, shortened: as §1

HCC-44 = tested on: HCC-44
Procedure, shortened: as §1

HCC-15 = tested on: HCC-15
Procedure, shortened: as §1

Question: Which results are given for `CC(=O)O[C@@]12CO[C@@H]1C[C@H](O)[C@@]1(C)C(=O)[C@H](O)C3=C(C)[C@@H](OC(=O)[C@H](O)[C@@H](NC(=O)OC(C)(C)C)c4ccccc4)C[C@@](O)([C@@H](OC(=O)c4ccccc4)[C@H]21)C3(C)C` [Docetaxel] + Nc1nc2[nH]cc(CCc3ccc(C(=O)N[C@@H](CCC(=O)O)C(=O)O)cc3)c2c(=O)[nH]1 [Pemetrexed] (partner 0.2 µM)?
Answer: relative viability (LCLC-103H; first compound 0.0002 µM): 0.495; relative viability (LCLC-103H; first compound 0.000632 µM): 0.54; relative viability (LCLC-103H; first compound 0.002 µM): 0.515; relative viability (LCLC-103H; first compound 0.006325 µM): 0.6; relative viability (LCLC-103H; first compound 0.02 µM): 0.492; relative viability (UMC-11; first compound 0.0002 µM): 0.717; relative viability (UMC-11; first compound 0.000632 µM): 0.698; relative viability (UMC-11; first compound 0.002 µM): 0.325; relative viability (UMC-11; first compound 0.006325 µM): 0.256; relative viability (UMC-11; first compound 0.02 µM): 0.195; relative viability (NCI-H1648; first compound 0.0002 µM): 0.73; relative viability (NCI-H1648; first compound 0.000632 µM): 0.758; relative viability (NCI-H1648; first compound 0.002 µM): 0.386; relative viability (NCI-H1648; first compound 0.006325 µM): 0.186; relative viability (NCI-H1648; first compound 0.02 µM): 0.231; relative viability (EKVX; first compound 0.0002 µM): 0.377; relative viability (EKVX; first compound 0.000632 µM): 0.392; relative viability (EKVX; first compound 0.002 µM): 0.288; relative viability (EKVX; first compound 0.006325 µM): 0.209; relative viability (EKVX; first compound 0.02 µM): 0.193; relative viability (NCI-H1755; first compound 0.0002 µM): 0.545; relative viability (NCI-H1755; first compound 0.000632 µM): 0.438; relative viability (NCI-H1755; first compound 0.002 µM): 0.453; relative viability (NCI-H1755; first compound 0.006325 µM): 0.367; relative viability (NCI-H1755; first compound 0.02 µM): 0.332; relative viability (NCI-H1395; first compound 0.0002 µM): 0.814; relative viability (NCI-H1395; first compound 0.000632 µM): 0.706; relative viability (NCI-H1395; first compound 0.002 µM): 0.652; relative viability (NCI-H1395; first compound 0.006325 µM): 0.342; relative viability (NCI-H1395; first compound 0.02 µM): 0.246; relative viability (HCC-44; first compound 0.0002 µM): 0.627; relative viability (HCC-44; first compound 0.000632 µM): 0.644; relative viability (HCC-44; first compound 0.002 µM): 0.628; relative viability (HCC-44; first compound 0.006325 µM): 0.602; relative viability (HCC-44; first compound 0.02 µM): 0.491; relative viability (HCC-15; first compound 0.0002 µM): 0.235; relative viability (HCC-15; first compound 0.000632 µM): 0.242; relative viability (HCC-15; first compound 0.002 µM): 0.262; relative viability (HCC-15; first compound 0.006325 µM): 0.273; relative viability (HCC-15; first compound 0.02 µM): 0.181

Question: For `Cc1sc2c(c1C)C(c1ccc(Cl)cc1)=N[C@@H](CC(=O)OC(C)(C)C)c1nnc(C)n1-2` [JQ1] + CC(=O)Nc1cccc(-n2c(=O)n(C3CC3)c(=O)c3c(Nc4ccc(I)cc4F)n(C)c(=O)c(C)c32)c1 [Trametinib] (partner 0.02 µM), which relative viability (LCLC-103H; first compound 0.04 µM) is on record?
Answer: 0.642

Question: What about the relative viability (LCLC-103H; first compound 0.1265 µM) of the same molecule?
Answer: 0.613

Question: And the relative viability (LCLC-103H; first compound 0.4 µM)?
Answer: 0.534

Question: And the relative viability (LCLC-103H; first compound 1.265 µM)?
Answer: 0.477

Question: And the relative viability (LCLC-103H; first compound 4 µM)?
Answer: 0.426

Question: And the relative viability (UMC-11; first compound 0.04 µM)?
Answer: 0.588

Question: And the relative viability (UMC-11; first compound 0.1265 µM)?
Answer: 0.543

Question: And the relative viability (UMC-11; first compound 0.4 µM)?
Answer: 0.377

Question: And the relative viability (UMC-11; first compound 1.265 µM)?
Answer: 0.204

Question: And the relative viability (UMC-11; first compound 4 µM)?
Answer: 0.194

Question: And the relative viability (NCI-H1648; first compound 0.04 µM)?
Answer: 0.432

Question: And the relative viability (NCI-H1648; first compound 0.1265 µM)?
Answer: 0.473

Question: And the relative viability (NCI-H1648; first compound 0.4 µM)?
Answer: 0.337

Question: And the relative viability (NCI-H1648; first compound 1.265 µM)?
Answer: 0.303

Question: And the relative viability (NCI-H1648; first compound 4 µM)?
Answer: 0.245

Question: What about the relative viability (EKVX; first compound 0.04 µM) of the same molecule?
Answer: 0.286

Question: And the relative viability (EKVX; first compound 0.1265 µM)?
Answer: 0.38

Question: And the relative viability (EKVX; first compound 0.4 µM)?
Answer: 0.366

Question: What about the relative viability (EKVX; first compound 1.265 µM) of the same molecule?
Answer: 0.432

Question: What about the relative viability (EKVX; first compound 4 µM) of the same molecule?
Answer: 0.271

Question: And the relative viability (NCI-H1755; first compound 0.04 µM)?
Answer: 0.796

Question: What about the relative viability (NCI-H1755; first compound 0.1265 µM) of the same molecule?
Answer: 0.809

Question: And the relative viability (NCI-H1755; first compound 0.4 µM)?
Answer: 0.8

Question: What about the relative viability (NCI-H1755; first compound 1.265 µM) of the same molecule?
Answer: 0.674

Question: What about the relative viability (NCI-H1755; first compound 4 µM) of the same molecule?
Answer: 0.65

Question: What about the relative viability (NCI-H1395; first compound 0.04 µM) of the same molecule?
Answer: 1.03

Question: And the relative viability (NCI-H1395; first compound 0.1265 µM)?
Answer: 0.991

Question: And the relative viability (NCI-H1395; first compound 0.4 µM)?
Answer: 0.912

Question: What about the relative viability (NCI-H1395; first compound 1.265 µM) of the same molecule?
Answer: 0.628

Question: What about the relative viability (NCI-H1395; first compound 4 µM) of the same molecule?
Answer: 0.578

Question: And the relative viability (HCC-44; first compound 0.04 µM)?
Answer: 1.02

Question: And the relative viability (HCC-44; first compound 0.1265 µM)?
Answer: 1.09

Question: And the relative viability (HCC-44; first compound 0.4 µM)?
Answer: 0.766

Question: What about the relative viability (HCC-44; first compound 1.265 µM) of the same molecule?
Answer: 0.649

Question: What about the relative viability (HCC-44; first compound 4 µM) of the same molecule?
Answer: 0.493

Question: And the relative viability (HCC-15; first compound 0.04 µM)?
Answer: 0.376

Question: What about the relative viability (HCC-15; first compound 0.4 µM) of the same molecule?
Answer: 0.338

Question: And the relative viability (HCC-15; first compound 1.265 µM)?
Answer: 0.31

Question: What about the relative viability (HCC-15; first compound 4 µM) of the same molecule?
Answer: 0.28
